Test results taken from patent publication US11752159B2, “Compositions and methods for suppressing or reducing systemic immune response in a subject” (THE TRUSTEES OF THE UNIVERSITY OF PENNSYLVANIA, priority 2015, dated 2023).

Columns and labels:
[1] = Toxicity (morbidity and mortality) of topical vitamin D3 analogs in mice; format: in vivo; details: for dose at which morbidity and mortality of mice was not observed: topical; for toxicity at 2 nmol/ear: topical 2 nmol/ear
Procedure: (§1) VDR stimulation of keratinocytes led to TSLP production, which in certain embodiments caused increase in Treg numbers. The effects of two vitamin D3 analogs (22-Oxacalcitriol, also known as 22-OXA, and EB1089) on TSLP production and Treg numbers were evaluated. Similarly to MC903, 22-OXA and EB1089 were applied to the ear skin bilaterally at a dose of 2 nmol/ear dissolved in ethanol. After 5 days of treatment, the mice were bled and serum TSLP levels were measured. […] To avoid the toxic effect, the dose of 22-OXA and EB1089 was lowered to a point where morbidity and mortality of mice was not observed (0.4 nmol/ear for 22-OXA; 0.04 nmol/ear for EB1089). At this dose, no increase in TSLP level was detected in 22-OXA-treated mice (FIG. 9B).

TSLP = experiment: Systemic TSLP induction by topical vitamin D3 analogs (ELISA); format: in vivo, mice; details: for serum TSLP levels: topical, ear skin bilaterally, 2 nmol/ear in ethanol, after 5 days of treatment
Tregs = experiment: Treg % in blood and spleen after topical vitamin D3 analogs; format: in vivo, mice; details: topical 0.04 nmol/ear
From the text: FIGS. 10A-10B comprise bar graphs illustrating data derived from topically treating mice with EtOH or EB1089 (0.04 nmol/ear) for 5 days and bleeding them on Day 7. Treg % from (FIG. 10A) blood and (FIG. 10B) spleen are illustrated. N=3 mice/group. *p<0.01 by Student t-test.
as §1

SMILES | dose at which morbidity and mortality of mice was not observed [1] | toxicity at 2 nmol/ear [1] | TSLP level at 0.4 nmol/ear (TSLP; topical 0.4 nmol/ear) | serum TSLP levels (TSLP) | TSLP level at 0.04 nmol/ear (TSLP; topical 0.04 nmol/ear) | blood Tregs (Tregs) | splenic Treg numbers (Tregs)
C=C1/C(=C\C=C2/CCC[C@]3(C)[C@@H]([C@H](C)OCCC(C)(C)O)CC[C@@H]23)C[C@@H](O)C[C@@H]1O [22-OXA, 22-oxa-1α,25(OH)2D3] | 0.4 nmol/ear | toxicity-related morbidity and mortality | no increase | induced detectable amounts of TSLP |  |  | 
C=C1/C(=C\C=C2/CCC[C@]3(C)[C@@H]([C@H](C)/C=C/C=C/C(O)(CC)CC)CC[C@@H]23)C[C@@H](O)C[C@@H]1O [EB1089, 1(S),3(R)-dihydroxy-20(R)-(5′-ethyl-5′-hydroxy-hepta-1′(E),3′(E)-dien-1′-yl)-9,10-secopregna-5(Z),7(E),10(19)-triene] | 0.04 nmol/ear | toxicity-related morbidity and mortality |  | induced detectable amounts of TSLP | some TSLP was detectable | only a subtle increase | did not have any effect
